This is an account of results in ChEMBL document CHEMBL1201862, “PubChem BioAssay data set” (2004).

Among the test systems are SK-MEL-2; SN12C; SK-MEL-5; MOLT-4; OVCAR-8; OVCAR-5; HT-29; UO-31; COLO 205; LOX IMVI; HL-60; HCT-116; SW-620; SF-268; A549; NCI-H460; SF-295; SK-MEL-28; K562; CCRF-CEM.
Common to all, as to experiment: DTP human tumour cell line panel, 48 h

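Five compound concentrations were applied to cells in 96-well plates for 48 hours; endpoints were derived by simple linear interpolation of the resulting dose-response curve. At the GI50, growth is halved.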 Calls of active or inactive are those of the source. Rule as the data show it: active = GI50 up to about 1.1 µM and inactive = higher.

Take `O=C1c2ccccc2-c2nnc(-c3ccc([N+](=O)[O-])cc3)cc21`: the GI50 in the assay on SK-MEL-2, in the assay with SN12C, in the assay on SK-MEL-5, with MOLT-4, in the assay with OVCAR-8 and with OVCAR-5 was > 10 µM (inactive) in each case. The GI50 in the assay on HT-29, with UO-31, in the assay on COLO 205, in the assay with LOX IMVI, in the assay on HL-60 and in the assay with HCT-116 was > 10 µM (inactive) in each case. Besides, the GI50 with SW-620, in the assay with SF-268, with A549, in the assay with NCI-H460, with SF-295 and in the assay with SK-MEL-28 was > 10 µM (inactive) each time. Further, the GI50 in the assay on K562 and with CCRF-CEM was > 10 µM (inactive) throughout.
As to `COc1cc(C2c3cc4c(cc3[C@@H](Nc3ccc(N5CCOCC5)cc3)C3COC(=O)[C@H]23)OCO4)cc(OC)c1O` (stereo not given in full), the GI50 was 2.46 µM (inactive) with SK-MEL-2; 0.388 µM (active) with SN12C; 1.04 µM (active) with SK-MEL-5; 0.0207 µM (active) in the assay on MOLT-4; 1.32 µM (inactive) in the assay with OVCAR-8; 1.82 µM (inactive) with OVCAR-5. The GI50 was 1.65 µM (inactive) with HT-29; 1.85 µM (inactive) in the assay on UO-31; 2 µM (inactive) in the assay with COLO 205; 1.01 µM (active) in the assay on LOX IMVI; 0.0319 µM (active) with HL-60; 1.25 µM (inactive) in the assay on HCT-116. Also, the GI50 in the assay with SW-620 was 1.5 µM (inactive); with SF-268 it was 1.07 µM (active); in the assay on A549, 0.0659 µM (active); with NCI-H460, < 0.01 µM (active); with SF-295, 0.296 µM (active); with SK-MEL-28 it was 3.82 µM (inactive). The results for the GI50 in the assay on K562 and in the assay with CCRF-CEM were 1.39 µM (inactive) and 0.136 µM (active), respectively.
For the compound `C#CC[C@@]12CC(=O)C[C@@H]1CCC1(C2)OCCO1.C#CC[C@]12CC(=O)CC[C@H]1CC(=O)C2`, the GI50 in the assay on SK-MEL-2 is > 100 µM (inactive); with SN12C it was > 100 µM (inactive); with SK-MEL-5, > 100 µM (inactive); in the assay on MOLT-4, 34.4 µM (inactive); with OVCAR-8, > 100 µM (inactive); in the assay with OVCAR-5, > 100 µM (inactive). The GI50 was > 100 µM (inactive) in the assay with HT-29; > 100 µM (inactive) in the assay with UO-31; > 100 µM (inactive) in the assay on COLO 205; > 100 µM (inactive) in the assay with LOX IMVI; 29.1 µM (inactive) with HL-60; > 100 µM (inactive) with HCT-116. For the same compound, the GI50 in the assay with SW-620, with SF-268, in the assay with A549, in the assay with NCI-H460, with SF-295 and in the assay with SK-MEL-28 was > 100 µM (inactive) in each case. The GI50 was 59.7 µM (inactive) in the assay on K562 and 60.1 µM (inactive) with CCRF-CEM.
In the case of `CCCCCCCCCCCC1=C(O)C(=O)C=C(O)C1=O` [EMBELIN], the GI50 in the assay with SK-MEL-2 is 5.11 µM (inactive); in the assay on SN12C, 4.73 µM (inactive); in the assay with SK-MEL-5, 4.84 µM (inactive); in the assay on MOLT-4, 6.35 µM (inactive); in the assay on OVCAR-8, 2.01 µM (inactive); with OVCAR-5 it was 8.83 µM (inactive). Also, the GI50 with HT-29 is 8.15 µM (inactive); with UO-31, 5.56 µM (inactive); in the assay on COLO 205, 7.5 µM (inactive); in the assay with LOX IMVI it was 7.35 µM (inactive); in the assay with HL-60 it was 3.95 µM (inactive); with HCT-116, 9.2 µM (inactive). Also, the GI50 in the assay with SW-620 was 18.3 µM (inactive); in the assay on SF-268 it was 3.92 µM (inactive); with A549, 4.36 µM (inactive); in the assay on NCI-H460, 2.88 µM (inactive); in the assay on SF-295, 6.03 µM (inactive); in the assay on SK-MEL-28, 6.67 µM (inactive). Besides, the GI50 was 7.67 µM (inactive) in the assay with K562 and 4.27 µM (inactive) in the assay with CCRF-CEM.
Take `O=Cc1cn(CCCCCCCCn2cc(C=O)c3ccccc32)c2ccccc12`: the GI50 in the assay on SK-MEL-2 was > 10 µM (inactive); with SN12C it was > 10 µM (inactive); in the assay with SK-MEL-5, 4.17 µM (inactive); with MOLT-4, 6.37 µM (inactive); with OVCAR-8 it was > 10 µM (inactive); with OVCAR-5, 8.79 µM (inactive). Moreover, the GI50 in the assay with HT-29 is > 10 µM (inactive); in the assay on UO-31 it was > 10 µM (inactive); in the assay on COLO 205, > 10 µM (inactive); in the assay with LOX IMVI it was 7.57 µM (inactive); in the assay on HL-60, 5.46 µM (inactive); in the assay on HCT-116, 7.4 µM (inactive). For the same compound, the GI50 is > 10 µM (inactive) in the assay on SW-620; > 10 µM (inactive) in the assay on SF-268; 6.59 µM (inactive) in the assay on A549; 0.561 µM (active) in the assay on NCI-H460; 6.41 µM (inactive) with SF-295; > 10 µM (inactive) in the assay with SK-MEL-28. In addition, the GI50 in the assay on K562 is 3.27 µM (inactive); in the assay with CCRF-CEM it was > 10 µM (inactive).
As for `COc1cc(CCCl)c(CC2=NCCc3cc(OC)c(OC)cc32)cc1OC`, the GI50 was > 100 µM (inactive) in the assay with SK-MEL-2; 80.9 µM (inactive) in the assay with SN12C; 67.8 µM (inactive) with SK-MEL-5; > 100 µM (inactive) with MOLT-4; > 100 µM (inactive) in the assay on OVCAR-8; > 100 µM (inactive) with OVCAR-5. Further, the GI50 is 32.5 µM (inactive) in the assay on HT-29; 69.3 µM (inactive) in the assay on UO-31; 47.4 µM (inactive) in the assay with COLO 205; 21.1 µM (inactive) in the assay on LOX IMVI; 4.41 µM (inactive) in the assay on HL-60; 24.4 µM (inactive) in the assay on HCT-116. The GI50 in the assay on SW-620 was 85.5 µM (inactive); in the assay with SF-268, 97.3 µM (inactive); with A549, > 100 µM (inactive); in the assay on NCI-H460 it was > 100 µM (inactive); with SF-295 it was 19.8 µM (inactive); in the assay with SK-MEL-28, > 100 µM (inactive). Further, the results for the GI50 in the assay with K562 and in the assay on CCRF-CEM were 31 µM (inactive) and 45.7 µM (inactive), respectively.
Take `Nc1nnc(N)n1NC(=O)C(=O)Nc1ccc([N+](=O)[O-])cc1`: the GI50 with SK-MEL-2, with SN12C, in the assay on SK-MEL-5, in the assay on MOLT-4, with OVCAR-8 and in the assay on OVCAR-5 was > 100 µM (inactive) throughout. For the same compound, the GI50 with HT-29, with UO-31, in the assay with COLO 205, in the assay with LOX IMVI, in the assay with HL-60 and in the assay on HCT-116 was > 100 µM (inactive) in each case. For the same compound, the GI50 in the assay on SW-620, in the assay on SF-268, with A549, in the assay on NCI-H460, with SF-295 and with SK-MEL-28 was > 100 µM (inactive) throughout. Moreover, the GI50 in the assay with K562 is 98.9 µM (inactive); with CCRF-CEM, > 100 µM (inactive).
